Literature values as cited in PMC9516332 (Frontiers in Oncology, 2022).
Like-named read-outs stand apart in the source and are kept apart here.

How the values were obtained:
[1] = biological target: panel of 255 wild-type kinases (Homo sapiens, UniProt P17948); settings: kinase FLT1, 1 µmol/L single concentration, cited from earlier work
[2] = biological target: panel of 255 wild-type kinases (Homo sapiens, UniProt P57059); settings: kinase SIK, 1 µmol/L single concentration, cited from earlier work
[3] = biological target: panel of 255 wild-type kinases (Homo sapiens, UniProt O14578); settings: kinase CRIK, 1 µmol/L single concentration, cited from earlier work
[4] = biological target: panel of 255 wild-type kinases (Homo sapiens, UniProt O75582); settings: MSK1, 1 µmol/L single concentration, cited from earlier work
[5] = biological target: panel of 255 wild-type kinases (Homo sapiens, UniProt O96013); settings: PAK4, 1 µmol/L single concentration, cited from earlier work
[6] = biological target: T1, panel of 255 wild-type kinases (Homo sapiens, UniProt O15530); settings: kinase PDK1, 1 µmol/L single concentration, cited from earlier work
T1 sequence (O15530 1-556): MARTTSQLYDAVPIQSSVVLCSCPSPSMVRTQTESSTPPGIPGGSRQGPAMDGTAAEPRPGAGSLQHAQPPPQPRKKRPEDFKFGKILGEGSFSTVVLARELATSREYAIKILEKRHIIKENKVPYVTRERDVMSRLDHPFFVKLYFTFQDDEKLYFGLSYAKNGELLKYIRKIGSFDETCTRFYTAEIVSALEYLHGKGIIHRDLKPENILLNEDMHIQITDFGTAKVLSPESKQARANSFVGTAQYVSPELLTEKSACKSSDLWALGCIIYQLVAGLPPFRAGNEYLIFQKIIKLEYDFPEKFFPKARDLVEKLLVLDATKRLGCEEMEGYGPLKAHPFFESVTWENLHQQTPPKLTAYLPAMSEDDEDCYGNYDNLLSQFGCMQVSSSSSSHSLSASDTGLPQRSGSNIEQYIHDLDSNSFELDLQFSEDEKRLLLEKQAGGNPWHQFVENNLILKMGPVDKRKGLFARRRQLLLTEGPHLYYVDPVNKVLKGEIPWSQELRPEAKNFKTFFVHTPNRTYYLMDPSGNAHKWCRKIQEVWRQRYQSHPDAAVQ

[7] = biological target: panel of 255 wild-type kinases (Homo sapiens, UniProt Q13164); settings: kinase Erk5, 1 µmol/L single concentration, cited from earlier work
[8] = biological target: T2, panel of 255 wild-type kinases (Homo sapiens, UniProt Q9UQB9); settings: AurC kinase assay, 1 µmol/L single concentration, cited from earlier work
T2 sequence (Q9UQB9 1-309): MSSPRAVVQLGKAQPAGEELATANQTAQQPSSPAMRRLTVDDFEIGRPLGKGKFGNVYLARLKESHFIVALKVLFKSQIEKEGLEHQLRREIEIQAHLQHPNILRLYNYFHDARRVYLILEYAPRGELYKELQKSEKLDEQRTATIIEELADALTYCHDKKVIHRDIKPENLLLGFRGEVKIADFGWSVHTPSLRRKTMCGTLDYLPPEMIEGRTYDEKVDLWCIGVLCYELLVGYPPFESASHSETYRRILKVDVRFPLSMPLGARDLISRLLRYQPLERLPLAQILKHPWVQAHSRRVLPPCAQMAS

[9] = biological target: panel of 255 wild-type kinases (Homo sapiens, UniProt Q9NQU5); settings: PAK6, 1 µmol/L single concentration, cited from earlier work
[10] = biological target: panel of 255 wild-type kinases (Homo sapiens, UniProt P51957); settings: NEK4, 1 µmol/L single concentration, cited from earlier work
[11] = biological target: T3, panel of 255 wild-type kinases (Homo sapiens, UniProt Q02156); settings: kinase PKCε, 1 µmol/L single concentration, cited from earlier work
T3 sequence (Q02156 1-737): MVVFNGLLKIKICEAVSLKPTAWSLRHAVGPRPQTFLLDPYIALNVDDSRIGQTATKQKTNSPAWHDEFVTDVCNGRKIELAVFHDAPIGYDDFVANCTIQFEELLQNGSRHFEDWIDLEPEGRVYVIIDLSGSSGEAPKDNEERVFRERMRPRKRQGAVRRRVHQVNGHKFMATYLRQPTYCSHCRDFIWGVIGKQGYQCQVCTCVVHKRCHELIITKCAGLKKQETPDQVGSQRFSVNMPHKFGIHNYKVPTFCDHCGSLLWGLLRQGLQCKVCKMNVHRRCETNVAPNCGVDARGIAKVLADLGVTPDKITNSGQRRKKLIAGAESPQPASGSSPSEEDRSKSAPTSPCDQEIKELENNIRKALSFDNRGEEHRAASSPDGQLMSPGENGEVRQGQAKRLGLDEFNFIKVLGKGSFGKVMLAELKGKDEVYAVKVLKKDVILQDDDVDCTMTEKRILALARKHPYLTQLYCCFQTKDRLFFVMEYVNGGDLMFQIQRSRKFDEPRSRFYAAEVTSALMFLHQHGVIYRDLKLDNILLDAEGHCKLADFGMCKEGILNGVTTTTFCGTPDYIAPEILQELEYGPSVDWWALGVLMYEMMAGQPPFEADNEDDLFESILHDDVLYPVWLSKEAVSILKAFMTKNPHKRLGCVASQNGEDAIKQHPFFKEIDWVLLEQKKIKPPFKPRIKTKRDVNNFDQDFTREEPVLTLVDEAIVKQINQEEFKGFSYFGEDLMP

[12] = ref DOI: 10.1371/journal.pone.0092146
[13] = ref DOI: 10.1158/1535-7163.MCT-18-0877

Row | SMILES | %-inhibition at 1 µmol/L, FLT1 [1, 12] | %-inhibition at 1 µmol/L, SIK [2, 12] | %-inhibition at 1 µmol/L, CRIK [3, 12] | %-inhibition, MSK1 [4, 12] | %-inhibition, PAK4 [5, 12] | %-inhibition at 1 µmol/L, PDK1 [6, 12] | %-inhibition at 1 µmol/L, Erk5 [7, 12] | %-inhibition AurC [8, 12] | %-inhibition, PAK6 [9, 12] | %-inhibition at 1 µmol/L, FLT1 [1, 13] | %-inhibition at 1 µmol/L, SIK [2, 13] | %-inhibition at 1 µmol/L, CRIK [3, 13] | %-inhibition, MSK1 [4, 13] | %-inhibition, PAK4 [5, 13] | %-inhibition at 1 µmol/L, PDK1 [6, 13] | %-inhibition at 1 µmol/L, Erk5 [7, 13] | %-inhibition AurC [8, 13] | %-inhibition, PAK6 [9, 13] | %-inhibition, NEK4 [10, 13] | %-inhibition at 1 µmol/L, PKCε [11, 13] | other results
1 | CCCS(=O)(=O)Nc1ccc(F)c(C(=O)c2c[nH]c3ncc(-c4ccc(Cl)cc4)cc23)c1F [vemurafenib] | 25% | 24% | -6% | 0.256% | -7% | -4% | 0.709% | 13% | -7% |  |  |  |  |  |  |  |  |  |  |  | %-inhibition, NEK4 [10, 12]: -0.416%; %-inhibition at 1 µmol/L, PKCε [11, 12]: -8%
2 | CC(=O)Nc1cccc(-n2c(=O)n(C3CC3)c(=O)c3c(Nc4ccc(I)cc4F)n(C)c(=O)c(C)c32)c1 [trametinib] | -2.75% | -3% | -4.25% | -0.531% | -0.675% | -5.52% | -2.55% | 1% | 8% |  |  |  |  |  |  |  |  |  |  |  | %-inhibition, NEK4 [10, 12]: 2%; %-inhibition at 1 µmol/L, PKCε [11, 12]: 6%
3 | CCc1cc2c(cc1N1CCC(N3CCOCC3)CC1)C(C)(C)c1[nH]c3cc(C#N)ccc3c1C2=O [alectinib] |  |  |  |  |  |  |  |  |  | 2.23% | 12% | 2.31% | 0.0374% | 6.55% | -2.12% | -1.24% | 2.65% | -8% | -1.16% | 10% | 
4 | CC(C)(C)c1nc(-c2cccc(NS(=O)(=O)c3c(F)cccc3F)c2F)c(-c2ccnc(N)n2)s1 [dabrafenib] | 62% | 100% | -2.74% | 0.0759% | 11% | -5.38% | 0.144% | 23% | 9% |  |  |  |  |  |  |  |  |  |  |  | %-inhibition, NEK4 [10, 12]: 4%; %-inhibition at 1 µmol/L, PKCε [11, 12]: 5%
5 | CC#CC(=O)N1CCC[C@H]1c1nc(-c2ccc(C(=O)Nc3ccccn3)cc2)c2c(N)nccn12 [acalabrutinib] |  |  |  |  |  |  |  |  |  | -1.14% | 0.256% | -5% | -8% | -1.65% | -1.47% | -2.12% | 7% | -9% | -4.76% | -9% | 
6 | O=C(c1ccc(F)c(F)c1Nc1ccc(I)cc1F)N1CC(O)([C@@H]2CCCCN2)C1 [cobimetinib] |  |  |  |  |  |  |  |  |  | -0.349% | 0.384% | 0.417% | -3% | 2% | -1.65% | 1.71% | -2.68% | 2% | 5% | 4.22% | 
7 | C=CC(=O)Nc1cc(Nc2nccc(-c3cn(C)c4ccccc34)n2)c(OC)cc1N(C)CCN(C)C [osimertinib] |  |  |  |  |  |  |  |  |  | 9% | 22% | 7% | -0.561% | 12% | 0.0271% | 10% | 2.33% | 7% | 6% | -12% | 
8 | Cc1cc(Nc2ncc(Cl)c(Nc3ccccc3S(=O)(=O)C(C)C)n2)c(OC(C)C)cc1C1CCNCC1 [ceritinib] |  |  |  |  |  |  |  |  |  | 16% | 15% | -0.933% | -1.09% | 13% | -2.25% | 94% | 3.47% | 18% | -3.48% | 11% | 
9 | CO[C@@H]1[C@H](N(C)C(=O)c2ccccc2)C[C@H]2O[C@]1(C)n1c3ccccc3c3c4c(c5c6ccccc6n2c5c31)C(=O)NC4 [midostaurin] |  |  |  |  |  |  |  |  |  | 95% | 99% | 1.32% | 88% | 30% | 98% | -1.27% | 100% | 52% | 26% | 84% | 
